Data from US10138212B2, “Aminoquinazoline compounds as A2A antagonist” (Merck Sharp & Dohme Corp., priority 2015, dated 2018).

Tests used:
[1] = target: human A2a receptor (Homo sapiens (Human), UniProt P29274); test: A2a competition binding assay using Scintillation Proximity technology
Experimental: (§1) Binding affinities of compounds of the invention for the human A2a receptor were determined in a competition binding assay using Scintillation Proximity technology. Thus, 1* μg, or preferably 0.25 μg of membranes from HEK293 cells expressing the human A2a receptor were incubated with a compound of the invention at concentrations ranging from 3000 nM to 0.15 nM in a reaction mixture containing also 0.5 nM of a tritiated form of 5-amino-7-[2-phenethyl]-2-(furan-2-yl)-7H-pyrazolo[4,3-e][1,2,4]triazolo[1,5-c]pyrimidine (the tritiated compound) and 25 μg of wheat germ agglutin-coated yttrium silicate SPA beads for one hour at room temperature with agitation. The beads were then allowed to settle to the bottom of the wells for 1 hr, after which the membrane-associated radioactivity was determined by scintillation counting in a TopCount microplate reader. Ki values were determined using the Cheng-Prusoff equation.
HEK293 cells expressing the human, rat, dog or monkey adenosine 2a receptor (Purchased from Perkin-Elmer # RBHA2AM400UA).
The Tritiated compound was prepared in-house by MRL Radiochemistry according to published methods.
Wheat germ agglutinin-coated yttrium silicate SPA beads (GE Healthcare #RPNQ0023). Dilute to 25 mg/ml in assay buffer.
Assay Buffer was prepared in house: Dulbecco's calcium and magnesium free phosphate buffered saline+10 mM MgCl2
Adenosine deaminase from calf intestine, 10 mg/2 ml (Roche #10 102 105 001).
A2a antagonist standard (9-chloro-1-(2-furanyl)-[1,2,4]triazolo1,5-c]quinazolin-5-amine from Tocris Bioscience)
Make eight 1:3 serial dilutions in 100% DMSO from a 3 mM compound stock
Transfer 50 nl of compound into a 384-well OptiPlate (Perkin Elmer).
Typically, final concentrations of compound used in the assay ranged from 3000 nM to 0.152 nM.
Dilute a solution of the Tritiated compound to 1.25 nM in assay buffer. This is a 2.5× solution. The final concentration in the assay is 0.5 nM. Calculate the concentration by counting two 5 μl aliquots.
Use *1 ug or preferrably 0.25 ug of membrane/well. Dilute membranes to 9.7 μg/ml in assay buffer. Treat with 20 ug/ml adenosine deaminase (ADA) for 15 minutes at room temperature to degrade endogenous adenosine.
Use 25 μg/well wheat germ agglutinin-coated yttrium silicate SPA beads.
Mix ADA-treated membranes and SPA beads together for 30 min prior to assay.
To the Perkin-Elmer Optiplate-384 containing the compound titration add 20 μl of 2.5× solution of the Tritiated compound and 30 μl of the membrane-bead mixture. Incubate for one hour at room temperature with agitation.
Include total binding (assay buffer+1% DMSO) and non-specific binding (CGS15943, 1 μM) wells.
Allow the beads to settle for one hour.
A curve fitting program (i.e., Prism, Activity Base, Chemcart) is used to determine the EC50. The Ki value is calculated using the Cheng-Prusoff equation. Ki=EC50/(1+(radioligand concentration/Kd))
Using the foregoing assay method, the Ki results were obtained using the compounds of the invention described in Tables IIIa, IIIb, and IV. Each example compound tested is reported in the following format: Example number: A2a Ki reported in nM. Thus, for example, the compound Ex-1 was determined to have an Ki using the above-described assay and calculations, of 10.0 nM.

[2] = target: human A1 receptor (Homo sapiens (Human), UniProt P30542); test: A1 competition binding assay using Scintillation Proximity technology; selectivity = A1 binding Ki / A2a binding Ki; conditions: A1 binding Ki divided by A2a binding Ki
Sequence of human A1 receptor (P30542 whole entry): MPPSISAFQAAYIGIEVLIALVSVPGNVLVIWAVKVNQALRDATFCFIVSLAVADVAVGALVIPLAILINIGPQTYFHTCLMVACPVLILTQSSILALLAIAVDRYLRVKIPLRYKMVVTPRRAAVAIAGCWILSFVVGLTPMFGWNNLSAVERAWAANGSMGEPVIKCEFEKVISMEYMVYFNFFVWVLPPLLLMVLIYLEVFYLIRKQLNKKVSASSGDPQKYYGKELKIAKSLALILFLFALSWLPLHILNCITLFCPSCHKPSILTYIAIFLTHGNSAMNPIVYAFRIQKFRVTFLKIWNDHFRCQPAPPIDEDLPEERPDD
Experimental: as §1, with “A1” for “A2a”, “5” for “1* μg, or preferably 0.25 μg”, “CHO-K1” for “HEK293”, “0.7” for “0.5”, “8-Cyclopentyl-1,3-dipropylxanthine” for “5-amino-7-[2-phenethyl]-2-(furan-2-yl)-7H-pyrazolo[4,3-e][1,2,4]triazolo[1,5-c]pyrimidine”, “in a similar fashion described with A2a binding.” for “using the Cheng-Prusoff equation.”
• Cells expressing the human, rat, dog or monkey adenosine 1 receptor (Purchased from Perkin-Elmer # ES-010-M400UA • [^3H]DPCPX (purchased from Perkin-Elmer NET-974, 8-cyclopentyl-1,3-dipropylxanthine, [dipropyl-2,3-^3H(N)]. • Wheatgerm agglutinin-coated yttrium silicate SPA beads (Purchased from GE Healthcare #RPNQ0023). Dilute to 25 mg/ml in assay buffer. Store at 4° C. • Assay Buffer—Dulbecco's phosphate buffered saline without calcium and without magnesium+10 mM MgCl2 • Adenosine deaminase from calf intestine, 10 mg/2 ml (Roche #10 102 105 001). • DMSO • DPCPX (A1 antagonist) from Tocris Bioscience Compound Dilution • Dilute compounds to 1 mM in 100% DMSO
Make serial dilutions as necessary (i.e., 1:10, 1:3) in 100% DMSO.
Dilute 1:20 into assay buffer (i.e. 3 ul into 57 ul buffer). This is a 5× solution in 5% DMSO.
• Dilute [^3H]DPCPX to 1.75 nM in assay buffer. This is a 2.5× solution. The final concentration in the assay is 0.7 nM. Calculate the concentration by counting two 5 ul aliquots. Membrane Preparation • Use 5 ug of membrane/well. Dilute membranes to 250 ug/ml in assay buffer. Treat with 20 ug/ml adenosine deaminase (ADA) for 15 minutes at room temperature to degrade endogenous adenosine. Membrane-Bead Mixture • Use 25 ug/well wheatgerm agglutinin-coated yttrium silicate SPA beads • Mix ADA-treated membranes and SPA beads together for 30 min prior to assay. Assay Assembly • Add in order to a Perkin-Elmer Optiplate-384: 10 ul of 5× compound, 20 ul of 2.5× [^3H]DPCPX, 20 ul membrane-bead mixture. Incubate for one hour at room temperature with agitation. • Include total binding (assay buffer+1% DMSO) and non-specific binding (DPCPX, 1 uM) wells. Counting and Calculations

[3] = 0.25 μg of membranes from HEK293 cells expressing the human A2a receptor

Sequence of human A2a receptor (P29274 whole entry): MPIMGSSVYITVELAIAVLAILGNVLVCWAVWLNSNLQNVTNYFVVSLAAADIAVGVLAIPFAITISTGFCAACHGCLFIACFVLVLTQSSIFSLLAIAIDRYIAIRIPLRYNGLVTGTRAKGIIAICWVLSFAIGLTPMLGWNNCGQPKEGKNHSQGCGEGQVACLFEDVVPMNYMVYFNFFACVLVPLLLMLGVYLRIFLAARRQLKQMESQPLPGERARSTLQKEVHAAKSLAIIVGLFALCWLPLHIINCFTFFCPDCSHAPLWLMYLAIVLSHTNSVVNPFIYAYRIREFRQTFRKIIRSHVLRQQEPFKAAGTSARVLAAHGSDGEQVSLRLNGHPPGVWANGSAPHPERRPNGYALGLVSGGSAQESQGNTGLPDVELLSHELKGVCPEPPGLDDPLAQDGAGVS

SMILES	Ki [1, 3] [nM]	A2a selectivity (A2a A1 binding selectivity) [2]	Ki ([1]; * assay run with 1 μg of membranes versus 0.25 μg, HEK293 cells expressing the human A2a receptor) [nM]
COc1ccc(C(C)(C)O)nc1CNC(=O)c1nc(N)nc2c(OC)cccc12 [Example 1, 2-amino-N-[[6-(1-hydroxy-1-methyl-ethyl)-3-methoxy-2-pyridyl]methyl]-8-methoxy-quinazoline-4-carboxamide]	10	145	–
COc1cccc2c(C(=O)NCc3nc(C(C)(C)O)ccc3C)nc(N)nc12 [Example 2, 2-amino-N-[[6-(1-hydroxy-1-methyl-ethyl)-3-methyl-2-pyridyl]methyl]-8-methoxy-quinazoline-4-carboxamide]	0.6	193	–
COc1cccc2c(C(=O)NCc3cccc(C(C)(O)C(F)(F)F)n3)nc(N)nc12 (stereo not shown) [Example 3, 2-amino-8-methoxy-N-[[6-(2,2,2-trifluoro-1-hydroxy-1-methyl-ethyl)-2-pyridyl]methyl]quinazoline-4-carboxamide]	0.5	600	–
COc1cccc2c(C(=O)NCc3cccc(C4(O)CCC4)n3)nc(N)nc12 [Example 4, 2-amino-N-[[6-(1-hydroxycyclobutyl)-2-pyridyl]methyl]-8-methoxy-quinazoline-4-carboxamide]	0.6	314	–
COc1cccc2c(C(=O)NCc3cccc(C(C)C)n3)nc(N)nc12 [Example 5, 2-amino-N-[(6-isopropyl-2-pyridyl)methyl]-8-methoxy-quinazoline-4-carboxamide]	0.2	146	–
COc1cccc2c(C(=O)NCc3cccc(C4CCC4)n3)nc(N)nc12 [Example 6, 2-amino-N-[(6-cyclobutyl-2-pyridyl)methyl]-8-methoxy-quinazoline-4-carboxamide]	0.2	102	–
COc1cccc2c(C(=O)NCc3cccc(C4CC4)n3)nc(N)nc12 [Example 7, 2-amino-N-[(6-cyclopropyl-2-pyridyl)methyl]-8-methoxy-quinazoline-4-carboxamide]	0.3	169	–
COc1cccc2c(C(=O)NCc3cccc(-c4cccc(O)c4)n3)nc(N)nc12 [Example 8, 2-amino-N-[[6-(3-hydroxyphenyl)-2-pyridyl]methyl]-8-methoxy-quinazoline-4-carboxamide]	–	4	3.3
COc1cccc2c(C(=O)NCc3cccc(C(C)(C)O)n3)nc(N)nc12 [Example 9, 2-amino-N-[[6-(1-hydroxy-1-methyl-ethyl)-2-pyridyl]methyl]-8-methoxy-quinazoline-4-carboxamide]	0.4	764	–
COc1cccc2c(C(=O)NCc3cccc(-c4ccccn4)n3)nc(N)nc12 [Example 10, 2-amino-8-methoxy-N-[[6-(2-pyridyl)-2-pyridyl]methyl]quinazoline-4-carboxamide]	1.2	113	–
COc1cccc2c(C(=O)NCc3nc(C)ccc3C)nc(N)nc12 [Example 11, 2-amino-N-[(3,6-dimethyl-2-pyridyl)methyl]-8-methoxy-quinazoline-4-carboxamide]	0.2	208	–
COc1cccc2c(C(=O)NCc3cccc4cccnc34)nc(N)nc12 [Example 12, 2-amino-8-methoxy-N-(8-quinolylmethyl)quinazoline-4-carboxamide]	0.2	32	–

The remaining lines, values ahead:

Ki [1, 3] [nM]	A2a selectivity (A2a A1 binding selectivity) [2]	Ki ([1]; * assay run with 1 μg of membranes versus 0.25 μg, HEK293 cells expressing the human A2a receptor) [nM]	SMILES
0.2	112	–	CCn1cccc(CNC(=O)c2nc(N)nc3c(OC)cccc23)c1=O [Example 13, 2-amino-N-[(1-ethyl-2-oxo-3-pyridyl)methyl]-8-methoxy-quinazoline-4-carboxamide]
4.6	273	–	COc1cccc2c(C(=O)NCc3cccc(CO)n3)nc(N)nc12 [Example 14, 2-amino-N-[[6-(hydroxymethyl)-2-pyridyl]methyl]-8-methoxy-quinazoline-4-carboxamide]
0.5	319	–	COc1cccc2c(C(=O)NCc3cccc(C)n3)nc(N)nc12 [Example 15, 2-amino-8-methoxy-N-[(6-methyl-2-pyridyl)methyl]quinazoline-4-carboxamide]
0.3	114	–	COc1cccc2c(C(=O)NCc3cccc4ccncc34)nc(N)nc12 [Example 16, 2-amino-N-(8-isoquinolylmethyl)-8-methoxy-quinazoline-4-carboxamide]
0.4	184	–	COc1cccc2c(C(=O)NCc3cccc(C)c3)nc(N)nc12 [Example 17, 2-amino-8-methoxy-N-(m-tolylmethyl)quinazoline-4-carboxamide]
0.4	412	–	COc1cccc2c(C(=O)NCc3cccc(C(F)(F)F)n3)nc(N)nc12 [Example 18, 2-amino-8-methoxy-N-[[6-(trifluoromethyl)-2-pyridyl]methyl]quinazoline-4-carboxamide]
2.6	53	–	COc1cccc2c(C(=O)NCc3ncccc3C(F)(F)F)nc(N)nc12 [Example 19, 2-amino-8-methoxy-N-[[3-(trifluoromethyl)-2-pyridyl]methyl]quinazoline-4-carboxamide]
0.5	89	–	COc1cccc2c(C(=O)NCc3nc(C)ccc3F)nc(N)nc12 [Example 20, 2-amino-N-[(3-fluoro-6-methyl-2-pyridyl)methyl]-8-methoxy-quinazoline-4-carboxamide]
0.8	82	–	COc1cccc(CNC(=O)c2nc(N)nc3c(OC)cccc23)n1 [Example 21, 2-amino-8-methoxy-N-[(6-methoxy-2-pyridyl)methyl]quinazoline-4-carboxamide]
3	–	–	Nc1nc(C(=O)NCc2cccc3c2NCCC3)c2cccc(F)c2n1 [Example 90]
